Experimental data as given in PubChem BioAssay AID248 (DTP/NCI, 2004).
Values joined by “and” are separate entries in the source; they are usually repeats but may differ in a detail not shown here. Identical values can stand only once. Toxic doses and inconclusive results are not listed. Cut-off read from the data, not from the text of the source: active = T/C of 150% or more; inactive = T/C below 125%.

System: L1210 leukemia ip in BDF1 mice, survival T/C
Assay: NCI In Vivo Anticancer Drug Screen. Data for tumor model L1210 Leukemia (intraperitoneal) in B6D2F1 (BDF1) mice
Settings: endpoint: mean survival time, higher = longer survival
How it was run: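 Value reflects the ratio of survival in compound-treated mice to survival in vehicle-treated controls, with both groups carrying the same transplanted tumor.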

[1] = dose: 50.0 mg/kg/injection, schedule: Q01DX001 (ip), vehicle: saline
[2] = dose: 100.0 mg/kg/injection, schedule: Q01DX001 (ip), vehicle: saline
[3] = dose: 200.0 mg/kg/injection, schedule: Q01DX001 (ip), vehicle: saline
[4] = dose: 400.0 mg/kg/injection, schedule: Q01DX001 (ip), vehicle: saline
[5] = dose: 25.0 mg/kg/injection, schedule: Q04DX003 (ip), vehicle: Klucel (hydroxypropylcellulose) (HPC)
[6] = dose: 50.0 mg/kg/injection, schedule: Q04DX003 (ip), vehicle: Klucel (hydroxypropylcellulose) (HPC)
[7] = dose: 100.0 mg/kg/injection, schedule: Q04DX003 (ip), vehicle: Klucel (hydroxypropylcellulose) (HPC)
[8] = dose: 100.0 mg/kg/injection, schedule: Q04DX002 (ip), vehicle: Klucel (hydroxypropylcellulose) (HPC)
[9] = dose: 200.0 mg/kg/injection, schedule: Q04DX002 (ip), vehicle: Klucel (hydroxypropylcellulose) (HPC)
[10] = dose: 400.0 mg/kg/injection, schedule: Q04DX002 (ip), vehicle: Klucel (hydroxypropylcellulose) (HPC)
[11] = dose: 50.0 mg/kg/injection, schedule: Q04DX003 (ip), vehicle: saline
[12] = dose: 100.0 mg/kg/injection, schedule: Q04DX003 (ip), vehicle: saline
[13] = dose: 100.0 mg/kg/injection, schedule: Q01DX009 (ip), vehicle: Klucel (hydroxypropylcellulose) (HPC)
[14] = dose: 200.0 mg/kg/injection, schedule: Q01DX009 (ip), vehicle: Klucel (hydroxypropylcellulose) (HPC)
[15] = dose: 25.0 mg/kg/injection, schedule: Q01DX009 (ip), vehicle: saline with Tween-80
[16] = dose: 50.0 mg/kg/injection, schedule: Q01DX009 (ip), vehicle: saline with Tween-80
[17] = dose: 50.0 mg/kg/injection, schedule: Q04DX003 (ip), vehicle: saline with Tween-80
[18] = dose: 100.0 mg/kg/injection, schedule: Q01DX009 (ip), vehicle: saline with Tween-80
[19] = dose: 100.0 mg/kg/injection, schedule: Q04DX003 (ip), vehicle: saline with Tween-80

Measured: T/C

CCCCCCCCCCC[As](=O)(O)CCCCCCCCCCC
inactive: [1] 103 % of control | [2] 97 % of control | [3] 103 % of control | [4] 101 % of control

Cc1cccc(Nc2cc(=S)nc(N)[nH]2)c1
inactive: dose: 100.0 mg/kg/injection, schedule: Q01DX Z (ip), vehicle: methylcellulose (MC) 98 % of control | dose: 200.0 mg/kg/injection, schedule: Q01DX Z (ip), vehicle: methylcellulose (MC) 106 % of control

N=C(N)SCCCSC(=N)N
inactive: [5] 95 % of control | [6] 97 % of control | dose: 100.0 mg/kg/injection, schedule: Q01DX009 (ip), vehicle: saline 102 % of control | [7] 97 % of control and 98 % of control

CCN1C(=O)/C(=C\c2ccccc2)N=C1C
inactive: dose: 12.5 mg/kg/injection, schedule: Q01DX009 (ip), vehicle: DMSO 92 % of control | dose: 25.0 mg/kg/injection, schedule: Q01DX009 (ip), vehicle: DMSO 94 % of control | dose: 50.0 mg/kg/injection, schedule: Q01DX009 (ip), vehicle: DMSO 96 % of control

CN(C)CCC(=O)c1ccc2ccccc2c1
inactive: dose: 9.38 mg/kg/injection, schedule: Q01DX001 (ip), vehicle: saline 100 % of control | dose: 18.75 mg/kg/injection, schedule: Q01DX001 (ip), vehicle: saline 101 % of control | dose: 37.5 mg/kg/injection, schedule: Q01DX001 (ip), vehicle: saline 105 % of control

O=NN(C(=O)Nc1ccccc1)C1CCCCC1
inactive: dose: 18.0 mg/kg/injection, schedule: Q01DX001 (ip), vehicle: carboxymethylcellulose (CMC) 96 % of control | dose: 37.0 mg/kg/injection, schedule: Q01DX001 (ip), vehicle: carboxymethylcellulose (CMC) 94 % of control | dose: 75.0 mg/kg/injection, schedule: Q01DX001 (ip), vehicle: carboxymethylcellulose (CMC) 98 % of control | dose: 100.0 mg/kg/injection, schedule: Q01DX001 (ip), vehicle: carboxymethylcellulose (CMC) 105 % of control | dose: 150.0 mg/kg/injection, schedule: Q01DX001 (ip), vehicle: carboxymethylcellulose (CMC) 102 % of control | dose: 200.0 mg/kg/injection, schedule: Q01DX001 (ip), vehicle: carboxymethylcellulose (CMC) 104 % of control | dose: 250.0 mg/kg/injection, schedule: Q01DX001 (ip), vehicle: carboxymethylcellulose (CMC) 102 % of control

NNC(=O)c1nc2ccccc2s1
inactive: dose: 75.0 mg/kg/injection, schedule: Q01DX001 (ip), vehicle: other 96 % of control | dose: 150.0 mg/kg/injection, schedule: Q01DX001 (ip), vehicle: other 98 % of control

COC(=O)c1ccccc1-n1cnc2ccccc2c1=O
inactive: [8] 101 % of control | [9] 101 % of control | [10] 93 % of control

NC(=O)NC(CCl)NC(N)=O
inactive: dose: 25.0 mg/kg/injection, schedule: Q01DX009 (ip), vehicle: acetone 95 % of control | dose: 25.0 mg/kg/injection, schedule: Q04DX003 (ip), vehicle: saline 96 % of control | dose: 50.0 mg/kg/injection, schedule: Q01DX009 (ip), vehicle: acetone 94 % of control | [11] 94 % of control | dose: 100.0 mg/kg/injection, schedule: Q01DX001 (ip), vehicle: acetone 94 % of control | [12] 89 % of control

Cc1ncc(C(=O)O)c2c1OC(C)(C)OC2
inactive: [1] 100 % of control | [2] 91 % of control | [3] 100 % of control | [4] 94 % of control

O=C(O)CC1CCCNC1 (centres undefined)
inactive: dose: 75.0 mg/kg/injection, schedule: Q04DX003 (ip), vehicle: saline 100 % of control | dose: 150.0 mg/kg/injection, schedule: Q04DX003 (ip), vehicle: saline 103 % of control | dose: 300.0 mg/kg/injection, schedule: Q04DX003 (ip), vehicle: saline 101 % of control

CC([NH-])C(C)[NH-].CC([NH-])C(C)[NH-].[Cl][Co][Cl] (centres undefined)
inactive: dose: 50.0 mg/kg/injection, schedule: Q04DX002 (ip), vehicle: saline 102 % of control | dose: 100.0 mg/kg/injection, schedule: Q04DX002 (ip), vehicle: saline 112 % of control | dose: 200.0 mg/kg/injection, schedule: Q04DX002 (ip), vehicle: saline 122 % of control

COc1ccc([N+](=O)[O-])cc1NC(=O)Nc1ccc(S(N)(=O)=O)cc1
inactive: [13] 101 % of control | [14] 92 % of control | dose: 400.0 mg/kg/injection, schedule: Q01DX009 (ip), vehicle: Klucel (hydroxypropylcellulose) (HPC) 94 % of control

CCOC(=O)c1cnc(C)nc1Nc1c(C)cccc1C
inactive: dose: 100.0 mg/kg/injection, schedule: Q01DX001 (ip), vehicle: Klucel (hydroxypropylcellulose) (HPC) 99 % of control | dose: 200.0 mg/kg/injection, schedule: Q01DX001 (ip), vehicle: Klucel (hydroxypropylcellulose) (HPC) 105 % of control | dose: 400.0 mg/kg/injection, schedule: Q01DX001 (ip), vehicle: Klucel (hydroxypropylcellulose) (HPC) 100 % of control

COC(=N)c1ccc(C)c(I)c1
inactive: [8] 91 % of control | [9] 98 % of control | [10] 94 % of control

CCC(=O)c1ccc(OCC(O)CN2CCC(O)(c3ccccc3)CC2)cc1 (centres undefined)
inactive: [15] 98 % of control | dose: 25.0 mg/kg/injection, schedule: Q04DX003 (ip), vehicle: saline with Tween-80 97 % of control | [16] 89 % of control | [17] 105 % of control | [18] 95 % of control | [19] 100 % of control

CN(C)N=Nc1ccc(S(N)(=O)=O)cc1
inactive: dose: 50.0 mg/kg/injection, schedule: Q01DX001 (ip), vehicle: saline with Tween-80 98 % of control | [17] 103 % of control and 105 % of control | dose: 100.0 mg/kg/injection, schedule: Q01DX001 (ip), vehicle: saline with Tween-80 102 % of control | [19] 103 % of control and 105 % of control | dose: 200.0 mg/kg/injection, schedule: Q01DX001 (ip), vehicle: saline with Tween-80 104 % of control | dose: 200.0 mg/kg/injection, schedule: Q04DX003 (ip), vehicle: saline with Tween-80 105 % of control | dose: 400.0 mg/kg/injection, schedule: Q01DX001 (ip), vehicle: saline with Tween-80 105 % of control | dose: 400.0 mg/kg/injection, schedule: Q04DX003 (ip), vehicle: saline with Tween-80 106 % of control and 112 % of control

CCCCCCOC(=O)CCCCCCCCCCC(=O)CCCCCC
inactive: dose: 50.0 mg/kg/injection, schedule: Q01DX009 (ip), vehicle: Klucel (hydroxypropylcellulose) (HPC) 97 % of control | [11] 101 % of control | [13] 108 % of control | [12] 103 % of control | [14] 92 % of control | dose: 200.0 mg/kg/injection, schedule: Q04DX003 (ip), vehicle: saline 106 % of control

CC1CC=CCC1COC(OCC1CC=CCC1C)C1CC=CCC1C (centres undefined)
inactive: dose: 100.0 mg/kg/injection, schedule: Q01DX009 (ip), vehicle: other 93 % of control | dose: 100.0 mg/kg/injection, schedule: Q04DX003 (ip), vehicle: other 100 % of control | dose: 200.0 mg/kg/injection, schedule: Q01DX009 (ip), vehicle: other 98 % of control | dose: 200.0 mg/kg/injection, schedule: Q04DX003 (ip), vehicle: other 98 % of control | dose: 400.0 mg/kg/injection, schedule: Q01DX009 (ip), vehicle: other 93 % of control | dose: 400.0 mg/kg/injection, schedule: Q04DX003 (ip), vehicle: other 96 % of control

CC(C)(O)C(C)(O)c1ccc(Cl)cc1 (centres undefined)
inactive: [15] 93 % of control | [5] 101 % of control | [16] 102 % of control | [6] 101 % of control | [18] 98 % of control | [7] 101 % of control | dose: 200.0 mg/kg/injection, schedule: Q01DX009 (ip), vehicle: saline with Tween-80 104 % of control | dose: 200.0 mg/kg/injection, schedule: Q04DX003 (ip), vehicle: Klucel (hydroxypropylcellulose) (HPC) 106 % of control | dose: 400.0 mg/kg/injection, schedule: Q01DX009 (ip), vehicle: saline with Tween-80 94 % of control | dose: 400.0 mg/kg/injection, schedule: Q04DX003 (ip), vehicle: Klucel (hydroxypropylcellulose) (HPC) 95 % of control
